# Data as given in PMC12207590, “Substrate Specificity of the Organic Cation Transporters MATE1 and MATE2K and Functional Overlap with OCT1 and OCT2” (Journal of Medicinal Chemistry, 2025).
# Read-outs that look alike come from different tables or passages of the source.
# Key:
# [1] = molecular target: T1, MATE1 (Homo sapiens, UniProt Q96FL8); experiment: Uptake ratio in MATE1-overexpressing HEK293 cells vs empty vector (2.5 μM, 1 min, HPLC-MS/MS); assay type: cell-based; design: key to MATE1 substrate*: 1 = substrate; 0 = no substrate; details: for MATE1 ratio in this study: Table S1
# T1 sequence (Q96FL8 1-570): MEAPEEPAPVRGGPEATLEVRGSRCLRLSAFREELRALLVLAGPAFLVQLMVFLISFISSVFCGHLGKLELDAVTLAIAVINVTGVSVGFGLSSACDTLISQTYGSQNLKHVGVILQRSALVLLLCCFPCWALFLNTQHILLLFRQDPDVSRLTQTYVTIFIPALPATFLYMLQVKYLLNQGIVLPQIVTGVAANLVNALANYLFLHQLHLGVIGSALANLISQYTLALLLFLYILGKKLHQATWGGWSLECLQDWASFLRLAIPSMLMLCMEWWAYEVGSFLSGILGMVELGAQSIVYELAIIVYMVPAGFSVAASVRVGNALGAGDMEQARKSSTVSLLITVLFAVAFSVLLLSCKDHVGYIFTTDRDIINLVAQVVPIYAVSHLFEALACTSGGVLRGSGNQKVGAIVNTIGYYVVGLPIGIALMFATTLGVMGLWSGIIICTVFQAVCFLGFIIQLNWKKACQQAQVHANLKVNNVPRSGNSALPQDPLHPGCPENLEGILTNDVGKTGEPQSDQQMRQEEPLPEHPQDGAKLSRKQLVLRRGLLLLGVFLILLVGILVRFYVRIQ
# [2] = molecular target: MATE2K (Homo sapiens, UniProt Q86VL8); experiment: Uptake ratio in MATE2K-overexpressing HEK293 cells vs empty vector (2.5 μM, 1 min, HPLC-MS/MS); assay type: cell-based; design: key to MATE2 substrate*: 1 = substrate; 0 = no substrate; details: for MATE2K ratio in this study: Table S1
# MATE2K, sequence (Q86VL8 1-566 isoform Q86VL8-3): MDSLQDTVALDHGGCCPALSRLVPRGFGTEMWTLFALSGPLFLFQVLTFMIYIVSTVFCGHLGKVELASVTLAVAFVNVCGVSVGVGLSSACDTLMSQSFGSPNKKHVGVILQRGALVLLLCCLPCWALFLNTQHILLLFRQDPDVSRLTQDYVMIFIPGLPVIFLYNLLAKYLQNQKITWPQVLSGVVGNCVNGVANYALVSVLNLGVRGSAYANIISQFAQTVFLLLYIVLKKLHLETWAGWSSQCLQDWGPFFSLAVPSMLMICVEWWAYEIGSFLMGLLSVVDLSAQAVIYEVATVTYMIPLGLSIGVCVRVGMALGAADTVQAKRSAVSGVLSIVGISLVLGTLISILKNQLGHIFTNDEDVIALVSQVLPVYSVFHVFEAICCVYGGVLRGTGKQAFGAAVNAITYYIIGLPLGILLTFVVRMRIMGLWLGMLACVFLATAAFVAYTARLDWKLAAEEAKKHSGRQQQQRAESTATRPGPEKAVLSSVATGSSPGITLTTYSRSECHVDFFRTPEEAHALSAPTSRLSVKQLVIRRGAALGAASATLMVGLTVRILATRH
# [3] = uptake ratio MATE1-overexpressing vs empty-vector HEK293 cells, 2.5 μM, 1 min, mean
# [4] = uptake ratio MATE2K-overexpressing vs empty-vector HEK293 cells, 2.5 μM, 1 min, mean
# [5] = fold uptake over empty vector, 2.5 μM, 1 min
# [6] = mean ratio of uptake in MATE1-overexpressing HEK293 cells vs empty vector, 2.5 μM, 1 min
# [7] = mean ratio of uptake in MATE2K-overexpressing HEK293 cells vs empty vector, 2.5 μM, 1 min
SMILES,"MATE1 [1, 3]","MATE2 [2, 4]","MATE1 ratio [1, 5]","MATE2K ratio [2, 5]",other results
Cn1nnc2c(C(N)=O)ncn2c1=O [Temozolomide],1.03,1.1,,,
CC(C)(C)NCC(O)c1ccccc1Cl (centres unmarked) [Tulobuterol],1.31,1.74,,,
COc1ccccc1OCC(O)CN1CCN(CC(=O)Nc2c(C)cccc2C)CC1 (centres unmarked) [Ranolazine],1.11,1.3,1.11,1.30,
CN[C@H]1CC[C@@H](c2ccc(Cl)c(Cl)c2)c2ccccc21 [Sertraline],1.28,1.1,1.28,1.10,
C[N+]1(C)[C@@H]2C[C@@H](OC(=O)C(O)(c3cccs3)c3cccs3)C[C@H]1[C@@H]1O[C@@H]12 [tiotropium],,,,,MATE1 [1]: 27.4; MATE2 [2]: 1.94
Oc1ccc2c3c1O[C@H]1[C@H](O)CC[C@@]4(O)[C@@H](C2)N(CC2CC2)CC[C@]314 [6-beta-Naltrexol],,,,,MATE1 (uptake ratio) [1]: 1.2; MATE1 ratio [1]: 1.20; MATE2 (uptake ratio) [2]: 1.2; MATE2K ratio [2]: 1.20
C[N+]12CCC(CC1)C(OC(=O)C(O)(c1ccccc1)c1ccccc1)C2 (centres unmarked) [Clidinium],,,16.18,1.79,"MATE1 (uptake ratio) [1, 6]: 16.18; MATE2 (uptake ratio) [2, 7]: 1.79"
O=c1ncccn1[C@@H]1O[C@H](CO)[C@@H](O)[C@H]1O [Zebularine],1.12,0.9,,,MATE1 substrate* ([1]; Table S4): 0; MATE2 substrate* ([2]; Table S4): 0
"CN(C)CCC=C1c2ccccc2COc2ccccc21 [Doxepin (Z), Doxepin]",,,1.28,1.09,
"N[C@@H](CCC(=O)O)C(=O)O [Glutamic acid (D), Glutamic acid]",,,,,MATE1 ratio [1]: 1.17; MATE2K ratio [2]: 0.99
Cc1cc(O)cc(C)c1OCC(C)N (centres unmarked) [4-Hydroxymexiletine],,,1.67,1.42,"MATE1 (uptake ratio) [1, 6]: 1.67; MATE2 (uptake ratio) [2, 7]: 1.42"
NCCCCN [Putrescine],0.36,0.48,0.36,0.48,
CCOc1ccccc1OCC1CNCCO1 (centres unmarked) [Viloxazine],,,,,MATE1 [1]: 1.12; MATE2 [2]: 1.38
CC(CN(C)C)CN1c2ccccc2CCc2ccccc21 (centres unmarked) [Trimipramine],1.19,1.2,,,
CC[C@@H]1CN(C(=O)NCC(F)(F)F)C[C@@H]1c1cnc2cnc3[nH]ccc3n12 [Upadacitinib],1.51,1.27,,,
N=C(N)NC(=O)Cc1c(Cl)cccc1Cl [Guanfacine],,,1.60,1.37,
"N=C(N)NCCCCNC(=N)N [Arcaine, 1,4-diguanidinobutane]",,,40.20,16.29,"MATE1 ratio ([1]; fold uptake over empty vector, 2.5 μM, 1 min, listed as arcaine): 40; MATE1 (uptake ratio) [1, 6]: 40.2; MATE2 (uptake ratio) [2, 7]: 16.29"
C[C@@H]1CCN(C(=O)CC#N)C[C@@H]1N(C)c1ncnc2[nH]ccc12 [Tofacitinib],1.36,1.41,,,"MATE1 ratio in this study ([1]; 2.5 μM, 1 min): 1.36; MATE2K ratio in this study ([2]; 2.5 μM, 1 min): 1.41"
NCCc1cccc(O)c1 [m-Tyramine],,,8.90,1.31,
CNCC/C=C1/c2ccccc2CC(O)c2ccccc21 (centres unmarked) [10-OH-Nortriptyline],,,,,MATE1 (uptake ratio) [1]: 1.17; MATE1 ratio [1]: 1.17; MATE2 (uptake ratio) [2]: 1.14; MATE2K ratio [2]: 1.14
CC(=O)O[C@H]1C[C@@H]2CC[C@@H]3[C@H](CC[C@@]4(C)[C@H]3C[C@H]([N+]3(C)CCCCC3)[C@@H]4OC(C)=O)[C@@]2(C)C[C@@H]1N1CCCCC1 [Vecuronium],,,,,MATE1 [1]: 8.32; MATE2 [2]: 4.72

SMILES,"MATE1 [1, 3]","MATE2 [2, 4]","MATE1 ratio [1, 5]","MATE2K ratio [2, 5]",other results
Nc1ccc(N)cc1 [p-Phenylenediamine],,,,,MATE1 ratio [1]: 1.04; MATE2K ratio [2]: 1.07
NCC(CC(=O)O)c1ccc(Cl)cc1 (centres unmarked) [Baclofen],,,1.45,1.05,"MATE1 (uptake ratio) [1, 6]: 1.45; MATE2 (uptake ratio) [2, 7]: 1.05"
COc1ccc2c3c([nH]c2c1)C(C)=NCC3 [Harmaline],,,,,MATE1 ratio [1]: 1.19; MATE2K ratio [2]: 1.15
CCNCC(O)c1cccc(O)c1 (centres unmarked) [Etilefrine],,,9.81,2.04,
CC(C)[N+](C)(CCOC(=O)C1c2ccccc2Oc2ccccc21)C(C)C [Propantheline],10.16,5.77,10.16,5.77,
NCCCC(=O)O [Gamma-aminobutyric acid],,,0.90,0.87,
[H]/N=C(\N/C(=N/[H])NCCCCCCNC(=N)NC(=N)Nc1ccc(Cl)cc1)Nc1ccc(Cl)cc1 [Chlorhexidine],,,1.08,0.99,"MATE1 (uptake ratio) [1, 6]: 1.08; MATE2 (uptake ratio) [2, 7]: 0.99"
CCCCNC(=N)NC(=N)N [Buformin],,,,,MATE1 (uptake ratio) [1]: 24.8; MATE1 ratio [1]: 24.80; MATE2 (uptake ratio) [2]: 2.37; MATE2K ratio [2]: 2.37
CC(C)(C)NCC(O)COc1cccc2c1CC(O)C(O)C2 (centres unmarked) [Nadolol],,,9.41,10.12,"MATE1 ratio in this study ([1]; 2.5 μM, 1 min): 9.41; MATE2K ratio in this study ([2]; 2.5 μM, 1 min): 10.12"
CC1(C)C[C@@H]1C(=O)N/C(=C\CCCCSC[C@H](N)C(=O)O)C(=O)O [Cilastatin],,,,,MATE1 (uptake ratio) [1]: 1.13; MATE1 ratio [1]: 1.13; MATE2 (uptake ratio) [2]: 0.96; MATE2K ratio [2]: 0.96
C[C@H](NCCc1ccc(O)cc1)[C@H](O)c1ccc(O)cc1 (racemic) [Ritodrine],8.03,2.23,8.03,2.23,
CCc1nc(N)nc(N)c1-c1ccc(Cl)cc1 [Pyrimethamine],1.17,1.1,1.17,1.10,
CC(C)(C)NCC(O)COc1nsnc1N1CCOCC1 (stereo in doubt) [Timolol (R)],0.94,0.96,,,
COc1cc2c(cc1OC)CC(=O)N(CCCN(C)C[C@H]1Cc3cc(OC)c(OC)cc31)CC2 [Ivabradine],,,1.14,1.23,
Nc1ccn([C@@H]2O[C@H](CO)[C@@H](O)C2(F)F)c(=O)n1 [Gemcitabine],,,1.29,1.08,"MATE1 ratio in this study ([1]; 2.5 μM, 1 min): 1.29; MATE2K ratio in this study ([2]; 2.5 μM, 1 min): 1.08"
Cc1ccc(C(=O)Oc2ccc(C(O)CNC(C)(C)C)cc2OC(=O)c2ccc(C)cc2)cc1 (centres unmarked) [Bitolterol],,,0.38,0.57,"MATE1 (uptake ratio) [1, 6]: 0.38; MATE2 (uptake ratio) [2, 7]: 0.57"
O=C(Nc1nc2cccc(-c3ccc(CN4CCS(=O)(=O)CC4)cc3)n2n1)C1CC1 [Filgotinib],,,0.89,1.01,
O=P1(NCCCl)OCCCN1CCCl (centres unmarked) [Ifosfamide],,,,,MATE1 ratio [1]: 1.24; MATE2K ratio [2]: 1.17
COc1cc2c(cc1OC)-c1c(C)c3ccc(OC)c(OC)c3c[n+]1CC2 [Dehydrocorydaline],,,,,MATE1 ratio [1]: 9.25; MATE2K ratio [2]: 2.85
CNCC(=O)O [Sarcosine],0.76,1.01,0.76,1.01,
